Consider two compounds from PMC9884808, “Pharmacokinetics, tissue distribution, and antitumor activity of a novel compound, NY-2, in non-small cell lung cancer” (Frontiers in Pharmacology, 2023).

The test system of one series is T47D. Nature of the series: MTT cell viability assay. The format is cell-based, human. Conditions: Homo sapiens, T47D breast cancer cells. The protocol:
(§1) The human colorectal cancer cell lines, HCT116 and LoVo, the breast cancer cell line, T47D, the hepatocellular carcinoma cell line, HepG2, the normal human liver cell line, HL7702, human umbilical vein endothelial cells (HUVECs), and the non-small cell lung cancer cell lines, A549, H1993, HCC827, H460, were purchased from the American Type Culture Collection (Manassas, VA, United States). Cell lines were cultured in the recommended RPMI-1640 medium (AE24464298, Hyclone, United States) and DMEM medium (AE29422278, Hyclone, United States) supplemented with 10% fetal bovine serum (FBS; JC63470, FB15015, Clark, United States) with 1% penicillin-streptomycin. Cells were maintained in an incubator at 37°C with 5% CO2 (HF90,Sanyo, Japan) and passaged every 48–72 h, after detaching with 0.25% trypsin (Sigma, United States). The compounds ZLDI-8 and NY-1 to -15 were synthesized in the laboratory of Dr. Huaiwei Ding in Shenyang Pharmaceutical University, and verified by high-performance liquid chromatography (purity >95%) for use in experiments (Supplementary Figure S1). Paclitaxel was purchased from MedChemExpress (HY-B0015, 99.97% purity, United States).
(§2) Cell viability was measured by the MTT assay. HCT116, HL7702, A549, H1993, HCC827, and H460 cells were dispensed into 96-well plates at a density of 1 × 10^5 cells/mL. After 24–48 h incubation, cells were treated with the compounds at different concentrations for the indicated periods. An assay kit (WLA073, Wanlei Co., Liaoning, China), was used according to the manufacturer’s instructions to measure LDH activity, The absorbance at 450 nm was measured with a microplate reader (Elx-800, Bio-Rad, China).
The preliminary antitumor activity of the series of ZLDI-8 derivatives, NY-1 to -15 was screened by the MTT cell viability assay. […] The antitumor activity of NY-2 on HCT116 cells was concentration- and time-dependent, and slightly better than that of the original compound, ZLDI-8.

In a further series the test system is A549. Nature of the series: MTT cytotoxicity assay, NSCLC cells. The following applies: Homo sapiens, 48 h. The format is cell-based. The procedure: as §1, §2
(§3) First, the effects of NY-2 and ZLDI-8 on the survival rates of four NSCLC cell lines, A549, H1993, HCC827, H460, were compared by the MTT cytotoxicity assay. The various types of NSCLC cells were incubated with increasing concentrations of NY-2 and ZLDI-8 (1.25, 2.5, 5, 10, and 20 μM), and the cell viability at 48 h was measured. […] Considering that the culture time might be too long, NY-2 was selected for 48 h treatment at increasing concentrations of 2.5, 5.0, and 10 μM as the experimental conditions for subsequent in vitro experiments.
Background: Tetrazolium dyes change colour on reduction, which living cells bring about.

The subject of a further series is H1993. Put plainly: MTT cytotoxicity assay, NSCLC cells. The format is cell-based. Conditions: Homo sapiens, NCI-H1993, 48 h. The procedure: as §1, §2, §3
Another series relates to H460. Put plainly: MTT cytotoxicity assay, NSCLC cells. The format is cell-based. Conditions: Homo sapiens, NCI-H460, 48 h. The protocol:
as §1, §2, §3

Another series has as its system HCC827. Put plainly: MTT cytotoxicity assay, NSCLC cells. The format is cell-based. Conditions: Homo sapiens, 48 h. The procedure:
as §1, §2, §3

For series [1], the system named is normal human liver cell line, HL7702. Nature of the series: MTT cytotoxicity on normal cells. The format is cell-based. The following applies: 48 h; for cytotoxic effects on normal liver cells (HL7702): concentration ≤10 μM. The protocol:
as §1, §2
First, the effects of NY-2 and ZLDI-8 on the survival rates of four NSCLC cell lines, A549, H1993, HCC827, H460, were compared by the MTT cytotoxicity assay. The various types of NSCLC cells were incubated with increasing concentrations of NY-2 and ZLDI-8 (1.25, 2.5, 5, 10, and 20 μM), and the cell viability at 48 h was measured. […]

Series [2] can be described thus: Pharmacokinetics in rats after tail vein injection. The format is in vivo, Sprague-Dawley rats. Conditions: for Cmax / half-life / MRT last / AUC(0-inf) / AUC(0-t): male, Sprague-Dawley, plasma; for MRT last: read-out: MRT0-t; for AUC(0-inf) / AUC(0-t): 6 mg/kg. The source says:
We used the online ADME prediction tool Swiss AMDE (http://www.swissadme.ch/index.php) (SwissADME, 2017) to analyze the physicochemical descriptors and ADME parameters of NY-2 and ZLDI-8, to predict their pharmacokinetic properties, drug-like nature, and medicinal chemistry. […] Male Sprague-Dawley rats weighing 240 ± 20 g were purchased from Liaoning Changsheng Biotechnology Co., Ltd. (Liaoning, China, animal license #SCXK-2015-0001). Rats were used for the tissue distribution and pharmacokinetics experiments because of their larger body fluid volume. The rats were fasted for 12 h before the experiment but allowed to drink water freely. Animals were anesthetized with 4% chloral hydrate (0.5 mL/100 g), the total blood volume was collected from the abdominal aorta and quickly dispensed into heparinized EP tubes prepared in advance. The rats were euthanized after blood collection was completed. Plasma samples were subjected to a protein precipitation method for the quantitative analysis of ZLDI-8 and NY-2 by LC-MS/MS (API 3200MD, AB Sciex, United States). The samples were injected into the ionization source by the auto-sampler. A series of standard solutions of ZLDI-8 were prepared with final concentrations of 20, 50, 100, 250, 500, 1000, and 1500 ng/mL; and NY-2 was prepared with final concentrations of 100, 200, 500, 800, 1200, 1600, and 2000 ng/mL. The linear equation and correlation coefficient (r) of the regression curve were calculated from these concentrations and the corresponding absorption data. The specificity, lower limit of quantification (LLOQ), linear range, precision, accuracy, matrix effects, extraction recovery, stability of analytes during the whole process of storage, as well as treatment in a biological matrix and solution were determined to verify the reliability of the compound concentrations in vivo.
The plasma concentration-time concentration data of ZLDI-8 and NY-2 at different times were fitted by DAS2.0 pharmacokinetics software and the drug-time curve was drawn. The drug-time curves of the two compounds were compared and simulated, and a two-compartment model was selected to calculate the pharmacokinetic parameters using the statistical moment algorithm. The peak value (Cmax), half-life (t1/2), area under the curve (AUC0-t and AUC0-∞), plasma clearance rate (CL), mean retention time (MRT), and other parameters of the test data were expressed as mean ± SD. Statistical analyses were performed using GraphPad Prism 5 (GraphPad Software, San Diego, CA, United States), and all experiments were repeated at least three times. […] The experimental results are presented as mean ± SD or mean ± SEM, and significant differences are defined as p ≤ .05.
Plasma samples obtained after the SD rat tail vein injection of ZLDI-8 and NY-2 were processed and analyzed by HPLC-MS/MS, and the measured peak areas of ZLDI-8 and NY-2 were compared with the internal standard peak areas. The accompanying standard curves were used to calculate the plasma drug concentrations of each rat at different time points from the measured values. The plasma concentration-time data of ZLDI-8 and NY-2 at different times were fitted by DAS2.0 pharmacokinetic software, and the pharmacokinetic outcomes of the two compounds were obtained according to the two-compartment model and the pharmacokinetic parameters are shown in Table 2. The average plasma concentration-time curve after intravenous injection of 6 mg/kg compound ZLDI-8 and NY-2 was obtained by plotting the plasma concentrations against time.

[3] abbreviates: intravenous, rat, tail vein injection 6 mg/kg, mean ± SD, n = 6.
[4] abbreviates: iv, rat, tail vein injection 6 mg/kg, mean ± SD, n = 6.
[5] abbreviates: rat, iv, intravenous injection 6 mg/kg.
The mark [6] stands for this setting: rat, iv, tail vein injection 6 mg/kg, mean ± SD, n = 6.

Entries after “also recorded” stand apart in the source; their conditions may differ.

In general, IC50 refers to the concentration at which inhibition is half-maximal. As usually defined, the Cmax is the highest concentration seen after dosing. One may read the half-life as the time needed for the level to fall by half in the phase considered. As usually defined, the AUC(0-inf) is total exposure, with the tail of the curve extrapolated. By AUC(0-t) is commonly meant the area under the concentration-time curve up to a stated or last time point. On to `Cc1ccc(OCCn2c(C)c(C=C3C(=O)NC(=S)NC3=O)c3ccccc32)c(C)c1` [ZLDI-8, reference compound], for which the half-maximal inhibitory concentration (IC50) with T47D worked out at 29.1 µM; with A549 it was 23.1 ± 2.27 µM; with H1993, 8.33 ± 1.01 µM; in the series with H460 it was 25.2 ± 2 µM; in the series on HCC827, 9.39 ± 0.99 µM. Besides, the “cytotoxic effects on normal liver cells (HL7702)” value in series [1] is on record as “neither ZLDI-8 nor NY-2 had any obvious cytotoxic effects on normal cells”. Besides, the highest concentration (Cmax) in series [2] (setting [3]) worked out at 337 ng/mL; in series [2] (setting [4]), 337 ± 19.4 ng/mL. The same compound gave a half-life in series [2] (setting [4]) of 35.4 ± 15.6 min. Besides, in series [2] (setting [4]), the MRT last was found to be 18.6 ± 1.2 min. In addition, the AUC(0-inf) in series [2] (setting [5]) is 85.2 ng·h/mL; in series [2] (setting [6]) it was 85.2 ± 26.3 ng·h/mL. The AUC(0-t) in series [2] (setting [5]) worked out at 58.8 ng·h/mL; in series [2] (setting [6]), 58.8 ± 4.62 ng·h/mL.
For the compound `Cc1c(C=C2C(=O)NC(=S)NC2=O)c2ccccc2n1CCOc1ccc(F)cc1` [NY-2], the 50% inhibitory concentration (IC50) in the series with T47D stood at 34.7 µM; with A549, 8.95 ± 0.58 µM; in the series on H1993, 4.78 ± 0.64 µM; in the series with H460, 13.5 ± 0.58 µM; with HCC827, 5.98 ± 0.75 µM. For the same compound, the “cytotoxic effects on normal liver cells (HL7702)” value in series [1] is on record as “neither ZLDI-8 nor NY-2 had any obvious cytotoxic effects on normal cells; also recorded: no obvious cytotoxic effects”. Also, in series [1] (concentrations >10 μM), the “toxic effects on normal liver cells (HL7702)” value is “slightly weaker toxic effects than ZLDI-8”. In addition, the maximum concentration (Cmax) was determined as 2750 ng/mL in series [2] (setting [3]) and 2750 ± 1110 ng/mL in series [2] (setting [4]). For the same compound, in series [2] (setting [4]), the half-life was 129 ± 37.2 min. The MRT last in series [2] (setting [4]) turned out to be 64.2 ± 9.6 min. Moreover, the AUC(0-inf) in series [2] (setting [5]) was determined as 402 ng·h/mL; in series [2] (setting [6]), 402 ± 130 ng·h/mL. The exposure AUC(0-t) in series [2] (setting [5]) came to 370 ng·h/mL; in series [2] (setting [6]), 370 ± 111 ng·h/mL. The “MRT0-t of NY-2 relative to ZLDI-8 (printed: lower)” value in series [2] (rat, 6 mg/kg iv) turned out to be 3.5 times. Besides, in series [2] (rat, 6 mg/kg iv), the “plasma clearance (CL) of NY-2 as share of ZLDI-8's” value is on record as 22.2%. Moreover, in series [2] (rat, 6 mg/kg iv), the “t1/2 of NY-2 relative to ZLDI-8 (longer)” value is reported as “approximately 3.6 fold”. In series [2] (rats), the “CLZ rate of NY-2 as fraction of that of ZLDI-8” value is on record as 1/5.
